Experimental data from the supplement of paper PMC10307832.

What was measured:
Assay in all cases: relative viability (nuclei count vs DMSO), 5 days (fraction); higher = more cells survive
CPI-613 = compound: O=C(O)CCCCC(CCSCc1ccccc1)SCc1ccccc1 [CPI-613]
Method in brief: (§1)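 Lung cancer cell lines were seeded into 1536-well plates, kept overnight at 37 °C and pinned with five library-drug doses (not always all listed) spaced by √10. After 5 days, nuclei were Hoechst-stained, imaged at 4× and counted with MetaXpress. Viability is treated-well nuclei over vehicle-well nuclei, taken as a median across plates. Plates needed control CV below 25% and at least one doubling.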

Pimozide = compound: O=c1[nH]c2ccccc2n1C1CCN(CCCC(c2ccc(F)cc2)c2ccc(F)cc2)CC1 [Pimozide]
Method in brief: as §1

Tivozanib = compound: COc1cc2nccc(Oc3ccc(NC(=O)Nc4cc(C)on4)c(Cl)c3)c2cc1OC [Tivozanib]
Method in brief: as §1

[1] = compound: Cc1cnc(-c2cnc(NCCNc3ccc(C#N)cn3)nc2-c2ccc(Cl)cc2Cl)[nH]1
Method in brief: as §1

Cytarabine = compound: Nc1ccn([C@@H]2O[C@H](CO)[C@@H](O)[C@@H]2O)c(=O)n1 [Cytarabine]
Method in brief: as §1

JQ1 = compound: Cc1sc2c(c1C)C(c1ccc(Cl)cc1)=N[C@@H](CC(=O)OC(C)(C)C)c1nnc(C)n1-2 [JQ1]
Method in brief: as §1

Docetaxel = compound: CC(=O)O[C@@]12CO[C@@H]1C[C@H](O)[C@@]1(C)C(=O)[C@H](O)C3=C(C)[C@@H](OC(=O)[C@H](O)[C@@H](NC(=O)OC(C)(C)C)c4ccccc4)C[C@@](O)([C@@H](OC(=O)c4ccccc4)[C@H]21)C3(C)C [Docetaxel]
Method in brief: as §1

Cell Line	relative viability (CPI-613; 5 µM)	relative viability (CPI-613; 15.81 µM)	relative viability (CPI-613; 50 µM)	relative viability (CPI-613; 158.11 µM)	relative viability (CPI-613; 500 µM)	relative viability (Pimozide; 0.08 µM)	relative viability (Pimozide; 0.253 µM)	relative viability (Pimozide; 0.8 µM)	relative viability (Pimozide; 2.53 µM)	relative viability (Pimozide; 8 µM)	relative viability (Tivozanib; 0.005 µM)	relative viability (Tivozanib; 0.01581 µM)	relative viability (Tivozanib; 0.05 µM)	relative viability (Tivozanib; 0.1581 µM)	relative viability (Tivozanib; 0.5 µM)	relative viability ([1]; 0.08 µM)	relative viability ([1]; 0.253 µM)	relative viability ([1]; 0.8 µM)	relative viability ([1]; 2.53 µM)	relative viability (Cytarabine; 0.005 µM)	relative viability (Cytarabine; 0.01581 µM)	relative viability (Cytarabine; 0.05 µM)	relative viability (Cytarabine; 0.1581 µM)	relative viability (Cytarabine; 0.5 µM)	relative viability (JQ1; 0.04 µM)	relative viability (JQ1; 0.4 µM)	relative viability (JQ1; 1.265 µM)	relative viability (JQ1; 4 µM)	relative viability (Docetaxel; 0.0002 µM)	relative viability (Docetaxel; 0.000632 µM)	relative viability (Docetaxel; 0.002 µM)	relative viability (Docetaxel; 0.006325 µM)	relative viability (Docetaxel; 0.02 µM)	relative viability (JQ1; 0.1265 µM)
HCC-366	1.02	1.04	1.09	0.413	0.0138	0.978	1.01	0.967	0.992	0.972	0.982	0.98	1.02	1.02	0.992	1.04	0.928	0.968	0.925	1.01	0.974	0.884	0.337	0.11	1.05	1.08	0.693	0.325	0.946	0.631	0.14	0.0335	0.03	–
HCC-827	0.993	1.02	1.11	0.908	0.669	–	1.04	0.955	1.02	1.01	1.01	1.05	1.1	1.09	1	1.05	–	1.02	1.02	0.765	0.568	0.417	0.225	0.196	1.05	0.988	1.11	0.883	0.943	1.07	0.916	0.431	0.328	–
HOP-62	0.978	0.936	1	0.833	0.643	1.04	0.947	0.646	0.994	0.981	1.01	1.03	1.09	0.936	0.978	0.989	0.826	1.02	0.942	0.848	0.636	0.431	0.159	0.104	0.999	0.662	0.29	0.153	0.969	0.759	0.543	0.289	0.184	0.808
IA-LM	0.818	0.779	0.85	0.525	0.671	0.951	1.02	0.929	1.02	0.966	0.865	1.01	0.909	0.767	0.845	1.02	0.8	1.02	0.916	0.962	0.814	0.662	0.38	0.226	0.907	0.165	0.11	0.085	0.704	0.231	0.131	0.0652	0.0513	0.419
LC-2-ad	0.876	0.924	0.968	0.392	0.029	0.942	0.894	0.82	0.974	0.897	0.975	0.995	0.928	0.815	0.569	1.03	–	0.824	0.982	0.832	0.856	0.778	0.487	0.296	0.996	0.545	0.31	0.286	0.653	0.46	0.328	0.282	0.202	0.462
